Results taken from US20100298141A1, “SUBSTITUTED PYRIDINE N-OXIDE HERBICIDES” (E. I. DU PONT DE NEMOURS AND COMPANY, priority 2007, published 2010).

Legend:
crabgrass = assay: Test A pre-/postemergence greenhouse test; type: in vivo, Digitaria sanguinalis; details: for Crabgrass, Large plant response rating: 0 to 100 scale
In short: (§1)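 Greenhouse herbicide screen, pre- and postemergence in parallel. Soil: loam plus sand. Formulation: non-phytotoxic solvent mix with surfactant. Postemergence stage: one to two leaves, 2–10 cm height. Evaluation: visual injury, compared with untreated controls, about 10 days after treatment.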

giant foxtail = assay: Test A pre-/postemergence greenhouse test; type: in vivo, Setaria faberi; details: for Foxtail, Giant plant response rating: 0 to 100 scale
In short: as §1

morningglory [1] = assay: Test A pre-/postemergence greenhouse test; type: in vivo, Ipomoea spp.; details: for Morningglory plant response rating: 0 to 100 scale
In short: as §1

wheat [2] = assay: Test A pre-/postemergence greenhouse test; type: in vivo, Triticum aestivum; details: for Wheat plant response rating: 0 to 100 scale
In short: as §1

corn = assay: Test A pre-/postemergence greenhouse test; type: in vivo, Zea mays; details: for Corn plant response rating: 0 to 100 scale
In short: as §1

Italian ryegrass = assay: Test C pre-/postemergence test; type: in vivo, Lolium multiflorum; details: for Plant response rating, Ryegrass, Italian: scale 0 to 100, 0 no effect, 100 complete control
In short: (§2)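 Seeds were planted and treated preemergence with test chemical in a non-phytotoxic solvent mixture containing surfactant. Postemergence applications of the same formulation went onto plants 2 to 18 cm tall (1- to 4-leaf stage). A dash marks no test result.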

wheat [3] = assay: Test C pre-/postemergence test; type: in vivo, Triticum aestivum; details: for Wheat plant response rating: preemergence, scale 0 (no effect) to 100 (complete control); for Plant response rating, Wheat: scale 0 to 100, 0 no effect, 100 complete control
In short: as §2

catchweed bedstraw = assay: Test C pre-/postemergence test; type: in vivo, Galium aparine
In short: as §2

bermudagrass = assay: Test C pre-/postemergence test; type: in vivo, Cynodon dactylon; details: for Plant response rating, Bermudagrass: scale 0 to 100, 0 no effect, 100 complete control
In short: as §2

Goosegrass = assay: Test C pre-/postemergence test; type: in vivo, Eleusin indica; details: for Plant response rating, Goosegrass: scale 0 to 100, 0 no effect, 100 complete control
In short: as §2

morningglory [4] = assay: Test C pre-/postemergence test; type: in vivo, Ipomoea coccinea; details: for Plant response rating, Morningglory: scale 0 to 100, 0 no effect, 100 complete control
In short: as §2

yellow nutsedge = assay: Test C pre-/postemergence test; type: in vivo, Cyperus esculentus; details: for Plant response rating, Nutsedge, Yellow: scale 0 to 100, 0 no effect, 100 complete control
In short: as §2

pigweed = assay: Test C pre-/postemergence test; type: in vivo, Amaranthus retroflexus; details: for Plant response rating, Pigweed: scale 0 to 100, 0 no effect, 100 complete control
In short: as §2

soybean = assay: Test C pre-/postemergence test; type: in vivo, Glycine max; details: for Plant response rating, Soybean: scale 0 to 100, 0 no effect, 100 complete control
In short: as §2

[5] = tested on: common (oilseed) sunflower; assay: Test C pre-/postemergence test; type: in vivo, Helianthus annuus; details: for Sunflower plant response rating: preemergence, scale 0 (no effect) to 100 (complete control)
In short: as §2

barnyardgrass = assay: Test C flooded paddy test; type: in vivo, Echinochloa crus-galli; details: Flood
In short: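 Visual injury ratings against untreated controls, taken 13 to 15 days after compound was added to paddy water standing 3 cm above the soil.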

[6] = Postemergence, 125 g ai/ha, 0 is no effect, 100 is complete control
[7] = Postemergence, 500 g ai/ha, 0 is no effect, 100 is complete control
[8] = Preemergence, 125 g ai/ha, 0 no effect, 100 complete control
[9] = Preemergence, 500 g ai/ha, 0 to 100 scale where 0 is no effect and 100 is complete control
[10] = 31 g ai/ha, Preemergence, scale 0 to 100
[11] = 62 g ai/ha, preemergence, scale 0 (no effect) to 100 (complete control)
[12] = preemergence, 125 g ai/ha, scale 0 (no effect) to 100 (complete control)

SMILES: Cn1nc(C(F)(F)F)c(C[S+]([O-])c2cccc[n+]2[O-])c1OC(F)F (stereo not drawn) [Compound 3]
- Crabgrass, Large plant response rating (crabgrass; [6]): 80
- Crabgrass, Large plant response rating (crabgrass; [7]): 90
- Crabgrass, Large plant response rating (crabgrass; [8]): 90
- Plant response rating, Crabgrass, Large (crabgrass; [9]): 100
- Foxtail, Giant plant response rating (giant foxtail; [6]): 80
- Foxtail, Giant plant response rating (giant foxtail; [7]): 90
- Foxtail, Giant plant response rating (giant foxtail; [8]): 100
- Plant response rating, Foxtail, Giant (giant foxtail; [9]): 100
- Morningglory plant response rating (morningglory [1]; [6]): 70
- Morningglory plant response rating (morningglory [1]; [7]): 90
- Morningglory plant response rating (morningglory [1]; [8]): 80
- Plant response rating, Morningglory (morningglory [1]; [9]): 100
- Wheat plant response rating (wheat [2]; [6]): 60
- Wheat plant response rating (wheat [2]; [7]): 70
- Wheat plant response rating (wheat [2]; [8]): 60
- Plant response rating, Wheat (wheat [2]; [9]): 100
- Corn plant response rating (corn; [6]): 60
- Corn plant response rating (corn; [7]): 80
- Corn plant response rating (corn; [8]): 30
- Plant response rating, Corn (corn; [9]): 90
- Ryegrass, Italian plant response rating (Italian ryegrass; [10]): 60
- Ryegrass, Italian plant response rating (Italian ryegrass; [11]): 100
- Plant response rating (0 to 100), Ryegrass, Italian (Italian ryegrass; Postemergence, 31 g ai/ha): 0
- Plant response rating (0 to 100), Ryegrass, Italian (Italian ryegrass; Postemergence, 62 g ai/ha): 0
- Plant response rating, Ryegrass, Italian (Italian ryegrass; Postemergence, 125 g ai/ha): 0
- Plant response rating, Ryegrass, Italian (Italian ryegrass; Postemergence, 250 g ai/ha): 40
- Plant response rating (0 to 100), Ryegrass, Italian (Italian ryegrass; Preemergence, 250 g ai/ha): 100
- Ryegrass, Italian plant response rating (Italian ryegrass; [12]): 100
- Wheat plant response rating (wheat [3]; 62 g ai/ha): 20
- Plant response rating (0 to 100), Wheat (wheat [3]; Postemergence, 31 g ai/ha): 0
- Plant response rating (0 to 100), Wheat (wheat [3]; Postemergence, 62 g ai/ha): 0
- Plant response rating, Wheat (wheat [3]; Postemergence, 125 g ai/ha): 0
- Plant response rating, Wheat (wheat [3]; Postemergence, 250 g ai/ha): 0
- Plant response rating (0 to 100), Wheat (wheat [3]; Preemergence, 250 g ai/ha): 80
- Wheat plant response rating (wheat [3]; 125 g ai/ha): 70
- Galium plant response rating (catchweed bedstraw; [10]): 0
- Galium plant response rating (catchweed bedstraw; [11]): 0
- Plant response rating (0 to 100), Galium (catchweed bedstraw; Preemergence, 250 g ai/ha): 100
- Galium plant response rating (catchweed bedstraw; [12]): 95
- Bermudagrass plant response rating (bermudagrass; [10]): 80
- Bermudagrass plant response rating (bermudagrass; [11]): 100
- Plant response rating (0 to 100), Bermudagrass (bermudagrass; Postemergence, 31 g ai/ha): 0
- Plant response rating, Bermudagrass (bermudagrass; Postemergence, 125 g ai/ha): 50
- Plant response rating, Bermudagrass (bermudagrass; Postemergence, 250 g ai/ha): 50
- Plant response rating (0 to 100), Bermudagrass (bermudagrass; Preemergence, 250 g ai/ha): 100
- Bermudagrass plant response rating (bermudagrass; [12]): 100
- Goosegrass plant response rating (Goosegrass; [10]): 85
- Goosegrass plant response rating (Goosegrass; [11]): 100
- Plant response rating (0 to 100), Goosegrass (Goosegrass; Postemergence, 31 g ai/ha): 20
- Plant response rating, Goosegrass (Goosegrass; Postemergence, 62 g ai/ha): 50
- Plant response rating, Goosegrass (Goosegrass; Postemergence, 125 g ai/ha): 65
- Plant response rating, Goosegrass (Goosegrass; Postemergence, 250 g ai/ha): 80
- Plant response rating (0 to 100), Goosegrass (Goosegrass; Preemergence, 250 g ai/ha): 100
- Goosegrass plant response rating (Goosegrass; [12]): 100
- Morningglory plant response rating (morningglory [4]; [10]): 50
- Morningglory plant response rating (morningglory [4]; [11]): 90
- Plant response rating (0 to 100), Morningglory (morningglory [4]; Postemergence, 31 g ai/ha): 5
- Plant response rating, Morningglory (morningglory [4]; Postemergence, 62 g ai/ha): 50
- Plant response rating, Morningglory (morningglory [4]; Postemergence, 125 g ai/ha): 50
- Plant response rating, Morningglory (morningglory [4]; Postemergence, 250 g ai/ha): 50
- Plant response rating (0 to 100), Morningglory (morningglory [4]; Preemergence, 250 g ai/ha): 100
- Morningglory plant response rating (morningglory [4]; [12]): 100
- Nutsedge, Yellow plant response rating (yellow nutsedge; [10]): 0
- Nutsedge, Yellow plant response rating (yellow nutsedge; [11]): 100
- Plant response rating (0 to 100), Nutsedge, Yellow (yellow nutsedge; Postemergence, 31 g ai/ha): 0
- Plant response rating, Nutsedge, Yellow (yellow nutsedge; Postemergence, 62 g ai/ha): 0
- Plant response rating, Nutsedge, Yellow (yellow nutsedge; Postemergence, 125 g ai/ha): 0
- Plant response rating, Nutsedge, Yellow (yellow nutsedge; Postemergence, 250 g ai/ha): 0
- Plant response rating (0 to 100), Nutsedge, Yellow (yellow nutsedge; Preemergence, 250 g ai/ha): 100
- Nutsedge, Yellow plant response rating (yellow nutsedge; [12]): 100
- Pigweed plant response rating (pigweed; [10]): 75
- Pigweed plant response rating (pigweed; [11]): 100
- Plant response rating (0 to 100), Pigweed (pigweed; Postemergence, 31 g ai/ha): 0
- Plant response rating (0 to 100), Pigweed (pigweed; Postemergence, 62 g ai/ha): 0
- Plant response rating, Pigweed (pigweed; Postemergence, 125 g ai/ha): 10
- Plant response rating, Pigweed (pigweed; Postemergence, 250 g ai/ha): 60
- Plant response rating (0 to 100), Pigweed (pigweed; Preemergence, 250 g ai/ha): 100
- Pigweed plant response rating (pigweed; [12]): 100
- Soybean plant response rating (soybean; [10]): 5
- Soybean plant response rating (soybean; [11]): 30
- Plant response rating (0 to 100), Soybean (soybean; Postemergence, 31 g ai/ha): 40
- Plant response rating (0 to 100), Soybean (soybean; Postemergence, 62 g ai/ha): 60
- Plant response rating, Soybean (soybean; Postemergence, 125 g ai/ha): 70
- Plant response rating, Soybean (soybean; Postemergence, 250 g ai/ha): 85
- Plant response rating (0 to 100), Soybean (soybean; Preemergence, 250 g ai/ha): 95
- Soybean plant response rating (soybean; [12]): 95
- Sunflower plant response rating ([5]; 62 g ai/ha): 15
- Plant response rating (0 to 100), Sunflower ([5]; Preemergence, 250 g ai/ha): 95
- Sunflower plant response rating ([5]; 125 g ai/ha): 70
- Plant response rating, Barnyardgrass (barnyardgrass; 31 g ai/ha, scale 0 to 100 (0 no effect, 100 complete control)): 0
- Plant response rating, Barnyardgrass (barnyardgrass; 62 g ai/ha, scale 0 to 100, 0 no effect, 100 complete control, 13 to 15 days): 50
- Plant response rating, Barnyardgrass (barnyardgrass; 125 g ai/ha, scale 0 to 100, 0 no effect, 100 complete control, 13 to 15 days): 75
- Plant response rating, Barnyardgrass (barnyardgrass; 250 g ai/ha, scale 0 to 100 (0 no effect, 100 complete control)): 85
